# Columns and labels:
# Type in all cases: in vivo, rat
# [1] = test system: OLETF (Otsuka Long Evans Tokushima Fatty) rats; assay: Weight change of OLETF rats administered S-adenosylmethionine; parameters: Body Weight: dose or concentration left out as unconfirmed
# Experimental: (§1) 14 six-week-old OLETF (Otsuka Long Evans Tokushima Fatty) rats (Otsuka Research Lab., Tokushima, bred for use as a non-insulin-dependent diabetes mellitus model) were evenly divided into two injection groups. The rats of two groups were administered into the abdominal cavity either with S-adenosylmethionine (SAMe(+) group) or with a vehicle containing L-lysine (SAMe(−) group) at a daily dose of 15 mg/kg body weight for a duration of up to 19 weeks. 7 six-week-old LETO (Long Evans Tokushima Otsuka) rats (Otsuka Research Lab., Tokushima, normal rats) were used as a normal control group (Control group). The rats of each group were examined for their weight changes, and checked by way of conducting glucose load tests and euglycemic hyperinsulinemic clamp tests to measure the effect of S-adenosylmethionine on the insulin secretion and insulin sensitivity.
# (§2) Test data were analyzed to represent each test result in the form of mean±standard error mean. Differences in weight changes among the groups were analyzed by ANOVA with Least Significance Difference using SPSS/PC 10.0, and the differences in glucose load and clamp test results, by the Kruskall-Wallis test and checked using the Mann-Whitney probation method. The significance level was set at a p value of 0.05 or below.
# (1-1) Weight Change At 0, 1, 2, 4, 8, 13, 16 and 19 weeks after the administration had begun, the weight changes of the rats of the three groups were recorded.
# SD-based rats = assay: Toxicity of orally administered S-adenosylmethionine
# Experimental: 8 six-week-old, specific pathogen-free SD-based rats were evenly divided into four groups, which were orally administered with S-adenosylmethionine suspended in a 0.5% methylcellulose solution at a dose of 50, 100, 200 and 500 mg SAMe/kg body weight, respectively. […] Every 12 hours thereafter, the weight changes of the rats were recorded to examine the effect of S-adenosylmethionine. Further, on the 10th day, the rats were sacrificed and the internal organs were visually examined.
# [2] = test system: OLETF (Otsuka Long Evans Tokushima Fatty) rats; assay: Glucose load test
# Experimental: as §1, §2
# On the 19th week after the administration had begun, the rats were starved for 6 hours and a 35% glucose solution (0.5 g glucose/kg body weight) was bolus-infused into each rat through the tail artery. At 0, 2, 6, 8, 10, 15, 20 and 30 minites after the infusion, a 200 μl blood sample was taken from the tail artery of each rat, centrifuged and the plasma supernatant was separated. The blood glucose level was determined by employing YSI 2300.
# In addition, the glucose loss rate ( % /min) was calculated from the inclination of log-converted values of glucose concentrations measured during 2 to 15 minutes after the infusion. The glucose loss rates of the SAM(+) and SAM(−) groups were similar at 3.69±0.29 and 3.23±0.32%/min, respectively, while that of the Control group was much higher at 5.13±0.29%/min.
# [3] = test system: OLETF (Otsuka Long Evans Tokushima Fatty) rats; assay: Euglycemic hyperinsulinemic clamp test
# Experimental: as §1, with “The rats of each group were examined for their weight changes, and checked by way of conducting glucose load tests and euglycemic hyperinsulinemic clamp tests to measure the effect of S-adenosylmethionine on the insulin secretion and insulin sensitivity.” left out
# as §2, with “The significance level was set at a p value of 0.05 or below.” left out
# Based on the fact that the amount of glucose infused to maintain the steady basal level is equal to the amount of glucose consumed in the body, insulin resistance of each group was determined from the mean glucose infusion rate (mg/kg/min) during the clamp test period. […]
# [4] = measurement time period 0-30 min after the infusion
structure (smiles),measurement,setting,value
C[S+](CC[C@H](N)C(=O)[O-])C[C@H]1O[C@@H](n2cnc3c(N)ncnc32)[C@H](O)[C@@H]1O (stereo partly drawn) [S-adenosylmethionine],ratio of weight gain as compared with the SAM(−) group,"[1]; OLETF rats, 15 mg/kg/day into abdominal cavity, up to 19 weeks",significantly lower
same,Body Weight,[1]; week 0,220 g
same,Body Weight,[1]; week 1,299 g
same,Body Weight,[1]; week 2,343 g
same,Body Weight,[1]; week 4,403 g
same,Body Weight,[1]; week 8,464 g
same,Body Weight,[1]; week 13,498 g
same,Body Weight,[1]; week 16,528 g
same,Body Weight,[1]; week 19,565 g
same,toxicity,"SD-based rats; rat, oral, dose of 500 mg/kg, observed 10 days",no toxicity
same,autopsy: pathological abnormality of internal organs,"SD-based rats; rats, oral 50-500 mg/kg, 10th day",did not develop any pathological abnormality
same,weight loss,"SD-based rats; rats, oral 50-500 mg/kg, 10 day test period",no weight loss
same,survival at day 10,"SD-based rats; rats, oral single dose 50, 100, 200 and 500 mg/kg",All the rats were alive
same,blood glucose levels measured at 6 and 8 minutes after the infusion as compared with the SAM(−) group,"[2]; OLETF rats, 19th week of 15 mg/kg/day",significantly lower
same,Blood Glucose Level,"[2]; OLETF rats, 19th week of 15 mg/kg/day, 0 min after 0.5 g/kg glucose infusion",118 mg/dL
same,Blood Glucose Level,"[2]; OLETF rats, 19th week of 15 mg/kg/day, 2 min after 0.5 g/kg glucose infusion",368 mg/dL
same,Blood Glucose Level,"[2]; OLETF rats, 19th week of 15 mg/kg/day, 6 min after 0.5 g/kg glucose infusion",291 mg/dL
same,Blood Glucose Level,"[2]; OLETF rats, 19th week of 15 mg/kg/day, 8 min after 0.5 g/kg glucose infusion",265 mg/dL
same,Blood Glucose Level,"[2]; OLETF rats, 19th week of 15 mg/kg/day, 10 min after 0.5 g/kg glucose infusion",257 mg/dL
same,Blood Glucose Level,"[2]; OLETF rats, 19th week of 15 mg/kg/day, 15 min after 0.5 g/kg glucose infusion",224 mg/dL
same,Blood Glucose Level,"[2]; OLETF rats, 19th week of 15 mg/kg/day, 20 min after 0.5 g/kg glucose infusion",204 mg/dL
same,Blood Glucose Level,"[2]; OLETF rats, 19th week of 15 mg/kg/day, 30 min after 0.5 g/kg glucose infusion",172 mg/dL
same,glucose loss rate,"[2]; from inclination of log-converted glucose concentrations, 2 to 15 minutes after the infusion",3.69±0.29 %/min
same,area obtained by integrating the blood glucose level curve,[2]; [4],234±9.6 (mg/dl).min
same,"area under blood glucose level curve, difference among SAM(+), SAM(−) and Control groups",[2]; [4],no significant differences
same,mean glucose infusion rate,"[3]; 19th week of 15 mg/kg/day, insulin 12 mU/kg/min, clamp period 60 to 120 min",16.7 ± 1.70 mg/kg/min
same,insulin resistance,[3]; conclusion from clamp test,effectively lowers the insulin resistance
